Results taken from US9617545B2, “Method for treating breast cancer by targeting breast cancer stem cell” (KYUNGPOOK NATIONAL UNIVERSITY INDUSTRY-ACADEMIC COOPERATION …, priority 2014, dated 2017).

Tested on: MCF7 and MCF7/ADR cells
Test: MTT assay: cell viability against doxorubicin
Type: cell-based, human
Details: MCF7/ADR cells compared with MCF7 cells; doxorubicin 0, 1, 2, 10, 25 μM; 24, 48, 72 hours; FIG. 2A
Description: A human breast cancer maternal cell line, MCF-7 (Korean Cell Line Bank), was continuously exposed to 1 μM of a drug, doxorubicin (Sigma). In this case, the maternal cell line was cultured in […] for at least one week to establish a breast cancer cell MCF7/ADR having induced drug resistance. Here, the cell culture was performed at 37° C. and 5% CO^2 in a DMEM medium (Hyclon, Logan, Utah) supplemented with 10% FBS and 1% penicillin.
To evaluate cytotoxicity of the anti-cancer agent (doxorubicin), a cell viability assay was performed using an MTT assay. First, cells were plated on a 96-well plate at a density of 5×10^3 cells/well, treated with the drug, and then cultured for 24, 48, and 72 hours. Thereafter, each well was treated with 5 mg/ml of MTT (AMRESCO), and the cells were cultured at 37° C. for 4 hours. Each well was treated with DMSO ([…]) to dissolve a formazan salt, and the amount of the formazan salt was determined by measuring an OD value at 540 nm using a microplate reader (Tecan Austria GmbH, Austria). […]
After 24, 48, and 72 hours when the MCF7 and MCF7/ADR cells were treated with doxorubicin (0, 1, 2, 10, and 25 μM), the cell viabilities were determined.

## COc1cccc2c1C(=O)c1c(O)c3c(c(O)c1C2=O)C[C@@](O)(C(=O)CO)C[C@@H]3O[C@H]1C[C@H](N)[C@H](O)[C@H](C)O1 [doxorubicin]
  cell viability against doxorubicin: higher cell viability
